Assay type in all cases: biochemical
One assay addresses T1, PI3Kδ (Homo sapiens, UniProt O00329).
T1 construct: purchased Millipore 14-604
The experiment in a line: Inhibitory activity to PI3K δ, PI 3-Kinase (human) HTRF Assay kit. The settings on record: read-out: Inhibition rate % to PI3Kδ; for inhibition at 1 µM: 1 μM (Table 7); for inhibition at 10 µM: 10 μM (Table 7). The procedure:
Study on the inhibitory activity of the compounds of present invention to PI 3κα, PI3κδ and PI3κγ.
(§1) PI 3-Kinase (human) HTRF™ Assay kit (Cat.33-017, Millipore)
For example, 10 μL DTT is added into 500 μL 4× Reaction Buffer, and water is added to 1.5 mL.
The Test compounds are dissolved with DMSO to 1 mM as storage liquid. 2 μL of each of storage liquid is added into 48 μL ddH2O, to obtain the 40 μM compounds solution containing 4% DMSO. After mixing, 3 μL of each of the solution is added into 27 μL 4% DMSO (in ddH2O) to obtain the 4 μM compounds solution. […]
The screening concentration of PI 3k δ kinase: 2 ng/well,
(§2) Kinase is diluted with 2×PIP2 operating fluid, the concentration of kinase operating fluid is 2 times of screening concentration.
The concentration of ATP is 100 μM in 20 μL kinase reaction system.
(§3) Stop A and Stop B are mixed according to the proportion of 3:1, and are placed for 2 hours at room temperature to obtain the stop solution available.
(§4) DM C, DM A and DM B are mixed according to the proportion of 18:1:1, and are placed for 2 hours at room temperature to obtain the detection solution available.
(In TR-FRET formats the signal depends on donor and acceptor labels being close together.)

A further assay concerns the target T2, PDGFR β enzyme (Homo sapiens, UniProt P09619).
T2 construct: purchased Invitrogen P3082
Briefly: Inhibitory activity to PDGFR β enzyme, HTRF kinEASE TK kit. The note with it: read-out: Inhibition rate % (PDGFR β). The procedure:
HTRF kinEASE TK (Cat.62TK0PEC, Cisbio)
PDGFR β enzyme (Cat.P3082, Invitrogen)
1 mL 1×Kinase Buffer includes 200 μL 5×Enzyme buffer, 5 μL 1M MgCl2, 1 μL 1M DTT, 1 μL 1M MnCl2, 20 μL 2500 nM SEB, 773 μL ddH2O.
TK-Substrate and ATP are diluted to 2.5 times of reaction concentration with 1×PDGFR β Kinase Buffer.
5×PDGFR β enzyme working solution is prepared with 1×PDGFR β kinase buffer.
4×Sa-XL665 working solution is prepared with Detection Buffer.
TK-Ab-Cryptate is diluted 100 times with Detection Buffer to use as working solution.

The next assay deals with T3, PI3K α (Homo sapiens, UniProt P42336).
T3 construct: purchased Millipore 14-602
The experiment in a line: Inhibitory activity to PI3K α, PI 3-Kinase (human) HTRF Assay kit. The settings on record: read-out: % Inhibition Rate to PI3K α.
From the text: (§5) Study on the inhibitory activity of the compounds of present invention to PI 3κα, PI3κδ and PI3κγ. Two or three concentrations of the compounds are selected to preliminary screening to calculate respectively the activity inhibition rate of the compounds of corresponding concentrations to enzyme, then the compounds with better activity are selected by preliminary screening for IC50 test.
as §1
PI 3k α (Cat.14-602, Millipore)
(§6) 4× Reaction Buffer (Cat.33-002, Millipore) is diluted with ddH2O to 1.33×, and 1M DTT is added to make the final concentration as 6.67 mM. For example, 10 μL DTT is added into 500 μL 4× Reaction Buffer, and water is added to 1.5 mL.
(§7) The Test compounds are dissolved with DMSO to 1 mM as storage liquid. 2 μL of each of storage liquid is added into 48 μL ddH2O, to obtain the 40 μM compounds solution containing 4% DMSO. After mixing, 3 μL of each of the solution is added into 27 μL 4% DMSO (in ddH2O) to obtain the 4 μM compounds solution. 5 μL of each dilute solution is added into 384-well plates, then the final concentration of the compounds in the 20 μL final kinase reaction system is 10 μM and 1 μM respectively contained 1% DMSO. The dilution methods of compounds are similar to the preliminary screening in IC50 test.
(§8) 2×PIP2 working fluid is prepared with 1.33× reaction buffer to the final concentration of 20 μM.
The screening concentration of PI 3k α kinase: 8 ng/well,
as §2
(§9) 10 mM ATP is diluted with 1.33× reaction buffer to 400 μM. The concentration of ATP is 100 μM in 20 μL kinase reaction system.
as §3, §4

In a further assay the target is T4, PI3 K γ (Homo sapiens, UniProt P48736).
T4 construct: purchased Biology, Medicilon
The experiment in a line: Inhibitory activity to PI3K γ, PI 3-Kinase (human) HTRF Assay kit. The settings on record: read-out: Inhibition rate % to PI3 K γ.
From the text: as §5, §1
PI 3k γ (Biology, Medicilon)
as §6, §7, §8
The screening concentration of PI 3k γ kinase: 80 ng/well,
as §2, §9, §3, §4

In patent publication US9718823B2, “2, 6-Di-nitrogen-containing substituted purine derivative, and preparation method, pharmaceutical composition and use thereof” (Zhejiang Medicine Co., Ltd. Xinchang Pharmaceutical Factory, priority 2013, dated 2017) one finds inhibition data, which are given here for eleven compounds.

T1 sequence (O00329 whole entry): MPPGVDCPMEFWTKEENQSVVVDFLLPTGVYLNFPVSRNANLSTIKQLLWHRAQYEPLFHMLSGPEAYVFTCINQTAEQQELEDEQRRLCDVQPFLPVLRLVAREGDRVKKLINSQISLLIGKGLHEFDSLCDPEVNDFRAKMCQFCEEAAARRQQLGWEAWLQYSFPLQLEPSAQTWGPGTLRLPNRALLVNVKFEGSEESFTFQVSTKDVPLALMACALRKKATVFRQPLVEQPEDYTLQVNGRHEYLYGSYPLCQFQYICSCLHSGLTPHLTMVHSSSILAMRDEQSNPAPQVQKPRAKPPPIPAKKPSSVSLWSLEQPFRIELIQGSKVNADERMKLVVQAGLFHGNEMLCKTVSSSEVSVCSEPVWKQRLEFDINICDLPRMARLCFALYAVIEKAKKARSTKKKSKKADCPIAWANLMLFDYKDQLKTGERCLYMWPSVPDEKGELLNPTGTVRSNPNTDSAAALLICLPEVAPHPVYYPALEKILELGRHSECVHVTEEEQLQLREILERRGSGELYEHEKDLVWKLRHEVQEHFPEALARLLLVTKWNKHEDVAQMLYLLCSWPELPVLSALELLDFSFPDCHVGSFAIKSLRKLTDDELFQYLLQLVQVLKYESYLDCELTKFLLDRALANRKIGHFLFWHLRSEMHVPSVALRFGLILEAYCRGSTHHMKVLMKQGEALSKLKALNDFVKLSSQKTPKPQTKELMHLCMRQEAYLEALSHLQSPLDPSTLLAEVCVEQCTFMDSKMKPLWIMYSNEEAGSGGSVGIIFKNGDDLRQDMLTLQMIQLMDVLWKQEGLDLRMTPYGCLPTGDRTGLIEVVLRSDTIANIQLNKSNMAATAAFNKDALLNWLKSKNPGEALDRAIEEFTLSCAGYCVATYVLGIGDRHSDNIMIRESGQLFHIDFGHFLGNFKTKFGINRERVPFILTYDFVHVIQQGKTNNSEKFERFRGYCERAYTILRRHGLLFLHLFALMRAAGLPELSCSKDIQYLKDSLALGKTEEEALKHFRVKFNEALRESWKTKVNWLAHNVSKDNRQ
T1 sequence (P27986 whole entry partner): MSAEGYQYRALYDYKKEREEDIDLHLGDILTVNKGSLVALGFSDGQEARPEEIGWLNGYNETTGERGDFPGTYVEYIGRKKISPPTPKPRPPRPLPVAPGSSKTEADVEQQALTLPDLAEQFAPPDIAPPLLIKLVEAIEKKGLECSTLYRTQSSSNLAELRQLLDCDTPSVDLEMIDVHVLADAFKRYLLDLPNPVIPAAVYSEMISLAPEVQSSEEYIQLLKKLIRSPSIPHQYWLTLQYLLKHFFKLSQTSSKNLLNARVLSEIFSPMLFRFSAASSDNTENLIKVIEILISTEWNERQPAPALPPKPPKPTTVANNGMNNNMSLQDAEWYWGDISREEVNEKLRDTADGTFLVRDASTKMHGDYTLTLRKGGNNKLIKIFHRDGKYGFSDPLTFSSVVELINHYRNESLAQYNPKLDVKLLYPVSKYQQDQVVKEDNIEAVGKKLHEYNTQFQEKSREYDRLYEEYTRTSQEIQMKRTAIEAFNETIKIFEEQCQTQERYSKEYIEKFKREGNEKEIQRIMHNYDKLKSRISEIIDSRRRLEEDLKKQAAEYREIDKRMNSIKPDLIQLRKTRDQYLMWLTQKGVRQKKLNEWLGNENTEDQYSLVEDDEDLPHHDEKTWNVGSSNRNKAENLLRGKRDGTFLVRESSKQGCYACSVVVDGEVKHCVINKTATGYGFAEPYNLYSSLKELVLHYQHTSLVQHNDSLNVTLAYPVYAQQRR
T3 sequence (P42336 whole entry): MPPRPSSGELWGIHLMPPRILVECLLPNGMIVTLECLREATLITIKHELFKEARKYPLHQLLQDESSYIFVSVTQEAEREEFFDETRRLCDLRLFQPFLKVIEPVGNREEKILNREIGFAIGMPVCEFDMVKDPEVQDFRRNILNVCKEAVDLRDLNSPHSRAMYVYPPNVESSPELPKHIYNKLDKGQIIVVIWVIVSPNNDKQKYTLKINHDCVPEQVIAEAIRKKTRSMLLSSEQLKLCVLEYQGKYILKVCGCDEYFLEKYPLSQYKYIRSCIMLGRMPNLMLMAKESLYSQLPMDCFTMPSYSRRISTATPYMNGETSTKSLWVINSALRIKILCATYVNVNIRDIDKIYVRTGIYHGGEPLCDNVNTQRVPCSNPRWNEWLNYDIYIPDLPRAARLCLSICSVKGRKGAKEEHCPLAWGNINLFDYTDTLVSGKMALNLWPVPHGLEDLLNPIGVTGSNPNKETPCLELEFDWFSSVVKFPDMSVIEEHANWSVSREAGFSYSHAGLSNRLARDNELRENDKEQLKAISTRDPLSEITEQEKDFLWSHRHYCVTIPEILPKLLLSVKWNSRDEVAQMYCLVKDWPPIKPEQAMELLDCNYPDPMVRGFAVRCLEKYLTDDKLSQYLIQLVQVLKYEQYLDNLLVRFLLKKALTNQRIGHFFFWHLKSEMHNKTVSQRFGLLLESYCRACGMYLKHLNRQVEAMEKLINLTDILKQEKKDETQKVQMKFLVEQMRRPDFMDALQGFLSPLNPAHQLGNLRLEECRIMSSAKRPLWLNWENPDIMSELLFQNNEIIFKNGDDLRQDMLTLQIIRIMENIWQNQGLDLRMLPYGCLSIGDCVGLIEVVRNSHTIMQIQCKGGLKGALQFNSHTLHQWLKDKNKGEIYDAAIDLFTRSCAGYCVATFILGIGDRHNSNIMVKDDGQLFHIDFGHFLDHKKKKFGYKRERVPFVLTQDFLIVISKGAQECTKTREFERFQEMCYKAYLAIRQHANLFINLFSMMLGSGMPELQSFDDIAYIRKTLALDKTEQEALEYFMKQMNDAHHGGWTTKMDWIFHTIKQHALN
T3 sequence (P27986 whole entry partner): as the sequence (P27986 whole entry partner) above
T2 sequence (P09619 33-1106): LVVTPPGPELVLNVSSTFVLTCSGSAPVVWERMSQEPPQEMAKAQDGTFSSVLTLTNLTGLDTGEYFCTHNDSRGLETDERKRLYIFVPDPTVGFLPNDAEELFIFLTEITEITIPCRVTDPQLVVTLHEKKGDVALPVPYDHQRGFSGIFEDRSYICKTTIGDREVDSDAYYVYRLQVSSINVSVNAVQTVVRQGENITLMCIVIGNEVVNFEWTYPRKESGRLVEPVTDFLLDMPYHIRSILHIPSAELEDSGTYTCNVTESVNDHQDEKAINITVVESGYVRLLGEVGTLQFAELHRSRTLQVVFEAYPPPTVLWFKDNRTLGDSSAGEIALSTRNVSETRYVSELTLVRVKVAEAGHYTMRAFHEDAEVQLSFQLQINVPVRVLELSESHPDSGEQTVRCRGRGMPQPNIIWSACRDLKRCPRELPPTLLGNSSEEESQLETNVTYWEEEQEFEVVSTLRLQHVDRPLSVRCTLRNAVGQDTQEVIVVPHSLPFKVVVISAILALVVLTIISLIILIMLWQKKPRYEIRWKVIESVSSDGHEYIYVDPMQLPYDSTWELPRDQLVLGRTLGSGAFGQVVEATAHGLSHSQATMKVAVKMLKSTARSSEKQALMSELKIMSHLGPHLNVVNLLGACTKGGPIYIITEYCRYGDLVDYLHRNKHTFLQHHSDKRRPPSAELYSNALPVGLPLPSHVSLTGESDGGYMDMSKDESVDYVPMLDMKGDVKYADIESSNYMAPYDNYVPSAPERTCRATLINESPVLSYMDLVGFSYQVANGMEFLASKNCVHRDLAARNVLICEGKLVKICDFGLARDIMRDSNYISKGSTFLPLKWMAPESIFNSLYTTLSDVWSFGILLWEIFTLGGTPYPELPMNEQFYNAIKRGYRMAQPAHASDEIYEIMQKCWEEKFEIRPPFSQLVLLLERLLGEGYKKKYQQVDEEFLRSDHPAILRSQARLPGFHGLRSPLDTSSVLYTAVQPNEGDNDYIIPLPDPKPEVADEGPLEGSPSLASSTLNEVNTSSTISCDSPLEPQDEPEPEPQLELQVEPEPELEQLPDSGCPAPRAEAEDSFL
T4 sequence (P48736 whole entry): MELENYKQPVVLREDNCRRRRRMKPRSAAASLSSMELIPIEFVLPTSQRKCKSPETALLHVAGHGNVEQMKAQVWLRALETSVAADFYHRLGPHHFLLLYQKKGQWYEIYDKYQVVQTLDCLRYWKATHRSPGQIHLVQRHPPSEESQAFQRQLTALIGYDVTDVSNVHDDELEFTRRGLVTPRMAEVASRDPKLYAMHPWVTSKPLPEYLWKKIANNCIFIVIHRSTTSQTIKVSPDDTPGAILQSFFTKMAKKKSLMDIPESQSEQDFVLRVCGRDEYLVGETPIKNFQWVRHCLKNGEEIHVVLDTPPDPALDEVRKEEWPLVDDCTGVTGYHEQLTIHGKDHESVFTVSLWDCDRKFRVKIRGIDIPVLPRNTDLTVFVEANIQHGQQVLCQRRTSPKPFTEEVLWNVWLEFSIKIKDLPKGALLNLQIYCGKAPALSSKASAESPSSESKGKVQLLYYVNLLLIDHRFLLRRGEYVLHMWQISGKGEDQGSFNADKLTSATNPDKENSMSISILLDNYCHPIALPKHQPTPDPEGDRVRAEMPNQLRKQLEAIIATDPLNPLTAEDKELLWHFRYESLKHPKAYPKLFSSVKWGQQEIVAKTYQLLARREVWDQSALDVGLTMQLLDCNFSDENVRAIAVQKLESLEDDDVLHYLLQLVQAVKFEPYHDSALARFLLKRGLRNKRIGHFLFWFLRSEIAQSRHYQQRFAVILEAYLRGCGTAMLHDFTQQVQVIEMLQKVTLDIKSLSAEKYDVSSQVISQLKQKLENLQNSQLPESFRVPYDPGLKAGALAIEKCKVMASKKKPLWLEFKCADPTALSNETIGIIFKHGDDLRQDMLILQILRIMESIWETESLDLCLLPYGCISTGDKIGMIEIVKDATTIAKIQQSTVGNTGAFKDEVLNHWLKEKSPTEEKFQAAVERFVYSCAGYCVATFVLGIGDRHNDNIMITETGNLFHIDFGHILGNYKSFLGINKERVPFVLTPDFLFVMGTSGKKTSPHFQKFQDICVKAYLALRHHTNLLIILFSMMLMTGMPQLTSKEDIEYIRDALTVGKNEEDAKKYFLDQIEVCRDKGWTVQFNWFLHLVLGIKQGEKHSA

One may read the inhibition as the relative decrease from the control value, in per cent. Regarding `OCCCNc1nc(Nc2ccc3nccc(-c4ccccc4)c3c2)nc2[nH]cnc12` [MED1007-73, 3-(2-(4-phenylquinoline-6-ylamino)-9H-purine-6-ylamino) propyl-1-ol], the inhibition at 1 µM is 6.41% at PI3Kδ, 17% at PDGFR β enzyme, 29.7% on PI3K α and 5.49% on PI3 K γ. In addition, the inhibition at 10 µM stood at 66.5% at PI3Kδ, 35% at PDGFR β enzyme, 66.1% on PI3K α and 28.4% at PI3 K γ.

With `c1ccc(-c2ccnc3ccc(Nc4nc(NC5CCC5)c5nc[nH]c5n4)cc23)cc1` [MED1007-75, N6-cyclobutyl-N2-(4-phenylquinoline-6-yl)-9H-purine-2,6-diamine], the inhibition at 1 µM on PI3Kδ worked out at 10.9%; on PDGFR β enzyme, 13.2%; at PI3K α it was 11.1%; at PI3 K γ it was 6.93%. Further, the inhibition at 10 µM at PI3Kδ was determined as 42.6%; at PDGFR β enzyme it was 8.74%; at PI3K α, 51.3%; at PI3 K γ, 10.9%.

`CCOc1cccc(-c2ccnc3ccc(Nc4nc(NC5CC5)c5nc[nH]c5n4)cc23)c1` [MED1007-83, N6-cyclopropyl-N2-(4-(3-ethoxyphenyl)quinoline-6-yl)-9H-purine-2,6-diamine]: the inhibition at 1 µM at PI3Kδ was determined as 22.7%; on PDGFR β enzyme, 4.5%; on PI3K α, 36.2%; on PI3 K γ, 5.93%. In addition, the inhibition at 10 µM at PI3Kδ was 68.5%; on PDGFR β enzyme, 7.6%; at PI3K α, 87.6%; at PI3 K γ, 24%.

On to `COc1ccc(-c2ccnc3ccc(Nc4nc(NC5CC5)c5nc[nH]c5n4)cc23)cc1OC` [MED1007-84, N6-cyclopropyl-N2-(4-(3,4-dimethoxyphenyl)quinoline-6-yl)-9H-purine-2,6-diamine], for which the inhibition at 1 µM on PI3Kδ is 71.8%; at PDGFR β enzyme it was -8.59%; at PI3K α, 58.7%; at PI3 K γ, 26.6%. The inhibition at 10 µM at PI3Kδ stood at 101%; on PDGFR β enzyme, 13.4%; at PI3K α it was 99.2%; on PI3 K γ, 34.2%.

Regarding `c1cc(-c2ccc3c(c2)OCO3)c2cc(Nc3nc(NC4CC4)c4nc[nH]c4n3)ccc2n1` [MED1007-85, N2-(4-(benzo[1,3]-dioxole-5-yl)quinoline-6-yl)-N6-cyclopropane-9H-purine-2,6-diamine], the inhibition at 1 µM at PI3Kδ is 54.1%; at PDGFR β enzyme it was -3.44%; on PI3K α, 66.2%; on PI3 K γ, 16.8%. For the same compound, the inhibition at 10 µM is 113% at PI3Kδ, 29.8% at PDGFR β enzyme, 90.1% at PI3K α and 41.9% at PI3 K γ.

Take `COc1ccccc1-c1ccnc2ccc(Nc3nc(NC4CC4)c4nc[nH]c4n3)cc12` [MED1007-86, N6-cyclopropyl-N2-(4-(2-methoxyphenyl)quinoline-6-yl)-9H-purine-2,6-diamine]: the inhibition at 1 µM is 27.3% at PI3Kδ, -5.49% on PDGFR β enzyme, 19.2% on PI3K α and 8.35% at PI3 K γ. Besides, the inhibition at 10 µM on PI3Kδ is 66.4%; at PDGFR β enzyme it was -3.13%; on PI3K α, 39.6%; on PI3 K γ, 23.1%.

On to `CSc1ccccc1-c1ccnc2ccc(Nc3nc(NC4CC4)c4nc[nH]c4n3)cc12` [MED1007-87, N6-cyclopropyl-N2-(4-(2-(methylthio)phenyl)quinoline-6-yl)-9H-purine-2,6-diamine], for which the inhibition at 1 µM was 23% at PI3Kδ, -7.6% at PDGFR β enzyme, 13.8% on PI3K α and -3.76% on PI3 K γ. Also, the inhibition at 10 µM at PI3Kδ was 80%; on PDGFR β enzyme, -4.13%; on PI3K α, 60.6%; at PI3 K γ, 29.5%.

In the case of `CSc1cccc(-c2ccnc3ccc(Nc4nc(NC5CC5)c5nc[nH]c5n4)cc23)c1` [MED1007-88, N6-cyclopropyl-N2-(4-(3-(methylthio)phenyl)quinoline-6-yl)-9H-purine-2,6-diamine], the inhibition at 1 µM at PI3Kδ was 31%; on PDGFR β enzyme, -5.37%; at PI3K α, 46.2%; at PI3 K γ, 7.02%. Further, the inhibition at 10 µM at PI3Kδ came out at 103%; at PDGFR β enzyme, 2.89%; on PI3K α, 110%; on PI3 K γ it was 41.5%.

On to `c1cnc2ccc(Nc3nc(OC4CCC4)c4nc[nH]c4n3)cc2c1` [MED1007-97], for which the inhibition at 1 µM was determined as 72.3% on PI3Kδ, 98.4% at PDGFR β enzyme, 56.3% at PI3K α and 74.7% on PI3 K γ. The inhibition at 10 µM on PI3Kδ came out at 88.5%; on PDGFR β enzyme, 99.5%; on PI3K α it was 114%; at PI3 K γ, 77%.

In the case of `c1ccc(-c2ccnc3ccc(Nc4nc(OC5CCC5)c5nc[nH]c5n4)cc23)cc1` [MED1007-98], the inhibition at 1 µM on PI3Kδ amounted to 71.1%; on PDGFR β enzyme, 38.1%; on PI3K α, 102%; at PI3 K γ, 32.8%. Moreover, the inhibition at 10 µM on PI3Kδ stood at 105%; on PDGFR β enzyme, 37.8%; on PI3K α, 118%; at PI3 K γ, 105%.

Regarding `c1ccc(-c2ccnc3ccc(Nc4nc(NCC5CCCC5)c5nc[nH]c5n4)cc23)cc1` [MED1007-99, N6-(cyclopentylmethyl)-N2-(4-phenylquinoline-6-yl)-9H-purine-2,6-diamine], the inhibition at 1 µM was found to be 7.67% on PI3Kδ, 33.1% on PDGFR β enzyme, 23.3% at PI3K α and 4.68% at PI3 K γ. Besides, the inhibition at 10 µM at PI3Kδ is 88.1%; on PDGFR β enzyme, 9.88%; on PI3K α, 88.3%; at PI3 K γ, 39.9%.
